{
  "source": "paper PMC6269799",
  "about": "“Synthesis and Trypanocidal Activity of Novel 2,4,5-Triaryl-N-Hydroxylimidazole Derivatives” (Molecules, 2013)",
  "key": {"[1]": {"tested_on": "bloodstream trypomastigote forms of T. cruzi (Y strain)", "experiment": "Activity against bloodstream trypomastigote forms", "type": "cell-based, Trypanosoma cruzi", "settings": "in vitro, mean ± standard deviation of at least four separate experiments, read-out: IC50 (trypanocidal activity)", "method": "The trypanocide profiles of the new TAI derivatives 3–12 was evaluated in vitro using bloodstream trypomastigote forms of T. cruzi (Y strain) isolated from infected Swiss mice and are summarised in Table 1.\nStock solutions of NAH derivatives were prepared in DMSO. Bloodstream trypomastigote forms of T. cruzi (Y strain) were isolated from infected Swiss mice and re-suspended with Dulbecco’s modified Eagle medium plus 10% foetal calf serum (DMES) to a parasite concentration of 10 × 10^6 cells/mL. This suspension (100 μL) was added to the same volume of each NAH derivative, previously prepared at twice the desired concentrations in DMES. Stock solutions of the NAH derivatives were prepared in dimethylsulfoxide (DMSO), and they were assayed in the range of 0.5 to 2000 μg/mL. The final concentration of DMSO never exceeded 0.5%, thus, it had no deleterious effect on the parasites."}, "[2]": {"experiment": "Cytotoxic effect on murine macrophages (Alamar Blue assay)", "type": "cell-based", "settings": "mouse, J774 macrophage cell line, murine macrophages J774, 21 h after the treatment", "method": "(§1) Cellular viability in the presence and absence of TAI derivatives (4–6) was determined using Alamar Blue assay (Invitrogen). The macrophage cell line J774 was seeded into black clear flat-bottomed 96-well plates in a density of […]. After 1 h of incubation in controlled atmosphere (5% CO2, 37 °C),cells received fresh medium with or without Tween 20 (3%), DMSO (0.5%) and the TAI compounds (1 to 100 μM) in a quadruplicate assay. After 21 h of incubation in the previous conditions, 20 μL of Alamar Blue solution was added to each well and after 3 h, fluorescence was measured using SpectraMax M5/M5^e microplate reader (Molecular Devices; λexc = 555 nm, λem = 585 nm)."}, "[3]": {"tested_on": "macrophage cell line J774", "experiment": "Cytotoxic effect on murine macrophages (Alamar Blue assay)", "type": "cell-based", "method": "as §1"}},
  "note": "Values joined by “and” are separate entries in the source; they are usually repeats but may differ in a detail not shown here. Identical values can stand only once. Like-named read-outs stand apart in the source and are kept apart here.",
  "data": [
    {"compound": "2'-(3-Hydroxy-4-methoxy-5-nitrophenyl)-1-methyl-5-nitro-5'-phenyl-1H,3'H-2,4'-biimidazol-3'-ol [Compound 12]", "values": [
      {"measurement": "IC50", "setting": "[1]", "value": "242 ± 7.54", "unit": "µM"}
    ]},
    {"compound": "O=C(Cn1ccnc1[N+](=O)[O-])NCc1ccccc1", "note": "[Bzn, benznidazole, reference compound]", "values": [
      {"measurement": "IC50", "setting": "[1]; Trypanosoma cruzi", "value": "10.8 ± 0.4", "unit": "µM"}
    ]},
    {"compound": "Cn1c([N+](=O)[O-])cnc1-c1c(-c2ccccc2)nc(-c2ccccc2)n1O", "note": "[Compound 3, 1-Methyl-5-nitro-2',5'-diphenyl-1H,3'H-2,4'-biimidazol-3'-ol]", "values": [
      {"measurement": "melting point", "value": "217 to 218", "unit": "°C"},
      {"measurement": "IC50", "setting": "[1]; Trypanosoma cruzi", "value": "108 ± 5.65", "unit": "µM"}
    ]},
    {"compound": "Cn1c([N+](=O)[O-])cnc1-c1c(-c2ccccc2)nc(-c2ccc(F)cc2)n1O", "note": "[Compound 4, 2'-(4-Fluorophenyl)-1-methyl-5-nitro-5'-phenyl-1H,3'H-2,4'-biimidazol-3'-ol]", "values": [
      {"measurement": "viability at 21 h, 1 µM", "setting": "[2]", "value": 94.2, "unit": "%"},
      {"measurement": "viability at 21 h, 10 µM", "setting": "[2]", "value": 98.9, "unit": "%"},
      {"measurement": "viability at 21 h, 100 µM", "setting": "[2]", "value": 97.6, "unit": "%"},
      {"measurement": "IC50", "setting": "[1]; Trypanosoma cruzi", "value": "67.8 ± 8.39", "unit": "µM"}
    ]},
    {"compound": "Cn1c([N+](=O)[O-])cnc1-c1c(-c2ccccc2)nc(-c2ccc(Cl)cc2)n1O", "note": "[Compound 5, 2'-(4-Chlorophenyl)-1-methyl-5-nitro-5'-phenyl-1H,3'H-2,4'-biimidazol-3'-ol]", "values": [
      {"measurement": "melting point", "value": "249 to 250", "unit": "°C"},
      {"measurement": "viability at 21 h, 1 µM", "setting": "[2]", "value": 95.7, "unit": "%"},
      {"measurement": "viability at 21 h, 10 µM", "setting": "[2]", "value": 97.6, "unit": "%"},
      {"measurement": "viability at 21 h, 100 µM", "setting": "[2]", "value": 93.1, "unit": "%"},
      {"measurement": "IC50", "setting": "[1]; Trypanosoma cruzi", "value": "34.6 ± 2.43", "unit": "µM"}
    ]},
    {"compound": "Cn1c([N+](=O)[O-])cnc1-c1c(-c2ccccc2)nc(-c2ccc(Br)cc2)n1O", "note": "[Compound 6, 2'-(4-Bromophenyl)-1-methyl-5-nitro-5'-phenyl-1H,3'H-2,4'-biimidazol-3'-ol]", "values": [
      {"measurement": "effect on cell viability (in words)", "setting": "[3]; 100 μM, murine macrophages", "value": "weakly reduced cell viability"},
      {"measurement": "cytotoxic effects (in words)", "setting": "[3]; host cells (murine macrophages) at concentrations near the trypanocidal IC50", "value": "did not present cytotoxic effects"},
      {"measurement": "viability at 21 h, 1 µM", "setting": "[2]", "value": 97.3, "unit": "%"},
      {"measurement": "viability at 21 h, 10 µM", "setting": "[2]", "value": 97.6, "unit": "%"},
      {"measurement": "viability at 21 h, 100 µM", "setting": "[2]", "value": 78.7, "unit": "%"},
      {"measurement": "IC50", "setting": "[1]; Trypanosoma cruzi", "value": "23.9 ± 4.88", "unit": "µM"}
    ]},
    {"compound": "Cn1c([N+](=O)[O-])cnc1-c1c(-c2ccccc2)nc(-c2ccc([N+](=O)[O-])cc2)n1O", "note": "[Compound 7, 1-Methyl-5-nitro-2'-(4-nitrophenyl)-5'-phenyl-1H,3'H-2,4'-biimidazol-3'-ol]", "values": [
      {"measurement": "melting point", "value": "361 to 362", "unit": "°C"},
      {"measurement": "IC50", "setting": "[1]; Trypanosoma cruzi", "value": "242 ± 37.6", "unit": "µM"}
    ]},
    {"compound": "COc1ccc(-c2nc(-c3ccccc3)c(-c3ncc([N+](=O)[O-])n3C)n2O)cc1", "note": "[Compound 8, 2'-(4-Methoxyphenyl)-1-methyl-5-nitro-5'-phenyl-1H,3'H-2,4'-biimidazol-3'-ol]", "values": [
      {"measurement": "melting point", "value": "218 to 219", "unit": "°C"},
      {"measurement": "IC50", "setting": "[1]; Trypanosoma cruzi", "value": "192 ± 25.3", "unit": "µM"}
    ]},
    {"compound": "Cn1c([N+](=O)[O-])cnc1-c1c(-c2ccccc2)nc(-c2ccc(O)cc2)n1O", "note": "[Compound 9, 2'-(4-Hydroxyphenyl)-1-methyl-5-nitro-5'-phenyl-1H,3'H-2,4'-biimidazol-3'-ol]", "values": [
      {"measurement": "IC50", "setting": "[1]; Trypanosoma cruzi", "value": "294 ± 28", "unit": "µM"}
    ]},
    {"compound": "Cn1c([N+](=O)[O-])cnc1-c1c(-c2ccccc2)nc(-c2ccc(O)c(O)c2)n1O", "note": "[Compound 10, 4-(3'-Hydroxy-1-methyl-5-nitro-5'-phenyl-1H,3'H-2,4'-biimidazol-2'-yl)benzene-1,2-diol]", "values": [
      {"measurement": "IC50", "setting": "[1]; Trypanosoma cruzi", "value": "360 ± 24.7", "unit": "µM"}
    ]},
    {"compound": "COc1ccc(-c2nc(-c3ccccc3)c(-c3ncc([N+](=O)[O-])n3C)n2O)cc1O", "note": "[Compound 11, 2'-(3-Hydroxy-4-methoxyphenyl)-1-methyl-5-nitro-5'-phenyl-1H,3'H-2,4'-biimidazol-3'-ol]", "values": [
      {"measurement": "melting point", "value": "213 to 214 °C and 213 °C"},
      {"measurement": "IC50", "setting": "[1]; Trypanosoma cruzi", "value": "200 ± 2.02", "unit": "µM"}
    ]}
  ]
}
